Assay results as given in ChEMBL document CHEMBL1671837, “[I]-Celecoxib Analogues as SPECT Tracers of Cyclooxygenase-2 in Inflammation” (ACS Med Chem Lett, 2011).
The source made the active and inactive calls. No cut-off for these calls is given here.

How the values were obtained:
[1] = molecular target: T1, Prostaglandin G/H synthase 1 (Ovis aries, UniProt P05979); experiment: Inhibition of ovine purified COX1 after 20 mins
T1 sequence (P05979 whole entry): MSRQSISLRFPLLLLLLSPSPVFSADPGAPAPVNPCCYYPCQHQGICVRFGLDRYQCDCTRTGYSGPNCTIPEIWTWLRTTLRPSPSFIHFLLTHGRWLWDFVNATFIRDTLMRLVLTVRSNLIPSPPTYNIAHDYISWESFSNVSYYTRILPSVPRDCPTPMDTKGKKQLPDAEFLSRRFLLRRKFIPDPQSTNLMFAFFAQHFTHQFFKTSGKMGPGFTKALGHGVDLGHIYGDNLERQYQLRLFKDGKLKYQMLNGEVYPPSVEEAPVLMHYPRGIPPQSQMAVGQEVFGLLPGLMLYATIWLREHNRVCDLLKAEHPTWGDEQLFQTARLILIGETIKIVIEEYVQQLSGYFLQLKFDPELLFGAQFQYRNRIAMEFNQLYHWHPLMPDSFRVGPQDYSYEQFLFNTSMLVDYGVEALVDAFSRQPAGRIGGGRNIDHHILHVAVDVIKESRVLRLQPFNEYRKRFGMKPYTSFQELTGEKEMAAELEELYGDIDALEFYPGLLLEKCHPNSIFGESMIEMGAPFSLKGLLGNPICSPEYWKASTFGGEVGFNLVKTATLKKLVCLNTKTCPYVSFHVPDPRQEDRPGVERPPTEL

[2] = molecular target: T2, Prostaglandin G/H synthase 2 (Mus musculus, UniProt Q05769); experiment: Inhibition of COX2 in mouse LPS-stimulated RAW264.7 cells after 30 mins; format: cell-based
T2 sequence (Q05769 whole entry): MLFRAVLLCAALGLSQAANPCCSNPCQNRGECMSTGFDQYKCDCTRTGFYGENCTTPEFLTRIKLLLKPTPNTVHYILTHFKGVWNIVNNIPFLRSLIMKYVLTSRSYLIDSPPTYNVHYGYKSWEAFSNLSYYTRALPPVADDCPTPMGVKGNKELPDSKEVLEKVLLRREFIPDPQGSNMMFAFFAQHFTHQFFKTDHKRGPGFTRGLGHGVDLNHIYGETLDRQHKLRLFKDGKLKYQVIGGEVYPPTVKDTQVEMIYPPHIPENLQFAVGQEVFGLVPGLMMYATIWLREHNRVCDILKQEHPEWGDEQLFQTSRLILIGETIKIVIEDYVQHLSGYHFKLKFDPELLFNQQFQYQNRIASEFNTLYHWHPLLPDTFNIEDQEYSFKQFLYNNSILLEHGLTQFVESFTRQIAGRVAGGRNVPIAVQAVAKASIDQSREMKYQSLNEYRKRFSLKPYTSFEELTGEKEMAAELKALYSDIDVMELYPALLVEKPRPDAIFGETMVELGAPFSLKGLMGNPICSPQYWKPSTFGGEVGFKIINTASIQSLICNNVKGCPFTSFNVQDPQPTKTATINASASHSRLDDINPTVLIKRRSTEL

[3] = molecular target: T3, Prostaglandin G/H synthase 1 (Mus musculus) (UniProt P22437); experiment: Inhibition of COX1 in mouse LPS-stimulated RAW264.7 cells at up to 5 uM after 30 mins; format: cell-based
T3 sequence (whole entry): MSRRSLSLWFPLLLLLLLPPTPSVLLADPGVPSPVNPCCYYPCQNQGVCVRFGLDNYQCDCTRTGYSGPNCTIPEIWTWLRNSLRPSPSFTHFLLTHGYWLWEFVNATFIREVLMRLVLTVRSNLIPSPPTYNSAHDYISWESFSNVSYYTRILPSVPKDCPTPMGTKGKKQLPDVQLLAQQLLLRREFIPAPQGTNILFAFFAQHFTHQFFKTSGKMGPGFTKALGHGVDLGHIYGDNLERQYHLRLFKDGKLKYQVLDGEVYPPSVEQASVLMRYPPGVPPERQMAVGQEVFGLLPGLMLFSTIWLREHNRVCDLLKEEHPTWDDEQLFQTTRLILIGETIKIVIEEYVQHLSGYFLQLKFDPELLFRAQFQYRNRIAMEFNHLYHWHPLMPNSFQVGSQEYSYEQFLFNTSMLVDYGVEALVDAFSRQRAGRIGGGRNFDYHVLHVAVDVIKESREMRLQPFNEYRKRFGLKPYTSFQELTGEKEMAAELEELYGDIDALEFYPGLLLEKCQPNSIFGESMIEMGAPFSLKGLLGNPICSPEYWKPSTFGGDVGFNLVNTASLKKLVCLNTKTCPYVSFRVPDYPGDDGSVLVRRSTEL

| Structure (SMILES) | IC50 [1] [µM] | IC50 [2] [µM] | inhibition [3] |
| --- | --- | --- | --- |
| NS(=O)(=O)c1ccc(-n2nc(CCC(=O)O)cc2-c2cccc(I)c2)cc1 | > 4 | – | – |
| CCOC(=O)c1cc(-c2ccc(I)cc2)n(-c2ccc(S(N)(=O)=O)cc2)n1 | > 4 | 2.7 | – |
| NS(=O)(=O)c1ccc(-n2nc(CCC(=O)O)cc2-c2ccc(I)cc2)cc1 | > 4 | – | – |
| CS(=O)(=O)c1ccc(-n2nc(C(F)(F)F)cc2-c2ccc(I)cc2)cc1 | > 4 | 0.03 | inactive |
| CS(=O)(=O)c1ccc(-n2nc(C(F)(F)F)cc2-c2cccc(I)c2)cc1 | > 4 | – | – |
| COC(=O)c1cc(-c2ccc(I)cc2)n(-c2ccc(S(C)(=O)=O)cc2)n1 | > 4 | – | – |
| COC(=O)c1cc(-c2cccc(I)c2)n(-c2ccc(S(N)(=O)=O)cc2)n1 | > 4 | – | – |
| COC(=O)c1cc(-c2ccc(I)cc2)n(-c2ccc(S(N)(=O)=O)cc2)n1 | > 4 | – | – |
| COC(=O)c1cc(-c2cccc(I)c2)n(-c2ccc(S(C)(=O)=O)cc2)n1 | > 4 | – | – |
